Source: ChEMBL document CHEMBL1147423, “Synthesis and antifungal activities of phenylenedithioureas” (2004)
Converted amounts (≈) assume the structure as drawn.

Columns and labels:
[1] = tested on: Candida albicans; test: Minimum inhibitory concentration against Candida albicans ATCC 10231; format: functional
[2] = tested on: Paraphyton cookei; test: Minimum inhibitory concentration against Microsporum cookei; format: functional
[3] = tested on: Nannizzia nana; test: Minimum inhibitory concentration against Microsporum nanum; format: functional
[4] = tested on: Escherichia coli; test: Minimum inhibitory concentration against Escherichia coli ATCC 25853; format: functional
[5] = tested on: Enterococcus faecalis; test: Minimum inhibitory concentration against Streptococcus faecalis ATCC 29212; format: functional
[6] = tested on: Nannizzia gypsea; test: Minimum inhibitory concentration Microsporum gypseum; format: functional
[7] = tested on: Aspergillus flavus; test: Minimum inhibitory concentration against Aspergillus flavus; format: functional
[8] = tested on: Staphylococcus aureus; test: Minimum inhibitory concentration Staphylococcus aureus ATCC 29213; format: functional
[9] = tested on: Pseudomonas aeruginosa; test: Minimum inhibitory concentration against Pseudomonas aeruginosae ATCC 27853; format: functional
[10] = tested on: Arthroderma uncinatum; test: Minimum inhibitory concentration against Trichophyton ajelloi; format: functional
[11] = tested on: Trichophyton benhamiae; test: Minimum inhibitory concentration against Trichophyton mentagrophytes; format: functional, Arthroderma benhamiae
[12] = tested on: Aspergillus niger; test: Minimum inhibitory concentration against Aspergillus niger; format: functional

Row | SMILES | MIC [1] [µg/mL] | MIC [2] [µg/mL] | MIC [3] [µg/mL] | MIC [4] [µg/mL] | MIC [5] [µg/mL] | MIC [6] [µg/mL] | MIC [7] [µg/mL] | MIC [8] [µg/mL] | MIC [9] [µg/mL] | MIC [10] [µg/mL] | MIC [11] [µg/mL] | MIC [12] [µg/mL]
1 | O=C(N[C@H](CO)[C@H](O)c1ccc([N+](=O)[O-])cc1)C(Cl)Cl [CHLORAMPHENICOL] | – | – | – | – | – | – | ≥ 512 | 128 (≈ 396 µM) | 512 (≈ 1580 µM) | – | – | ≥ 512
2 | CC(C)OC(=O)c1ccc(/N=C(\S)Nc2cccc(/N=C(/S)Nc3ccc(C(=O)OC(C)C)c(O)c3)c2)cc1O | > 512 | 32 (≈ 54.9 µM) | 32 (≈ 54.9 µM) | 512 (≈ 879 µM) | > 512 | 32 (≈ 54.9 µM) | ≥ 512 | 256 (≈ 439 µM) | > 512 | 32 (≈ 54.9 µM) | 16 (≈ 27.5 µM) | ≥ 512
3 | CC(C)OC(=O)c1ccc(/N=C(\S)Nc2ccc(/N=C(\S)Nc3ccc(C(=O)OC(C)C)cc3)cc2)cc1 | > 512 | 64 (≈ 116 µM) | 64 (≈ 116 µM) | > 512 | 512 (≈ 930 µM) | 32 (≈ 58.1 µM) | ≥ 512 | > 512 | 512 (≈ 930 µM) | 64 (≈ 116 µM) | 64 (≈ 116 µM) | ≥ 512
4 | CC(C)OC(=O)c1ccc(/N=C(\S)Nc2ccc(/N=C(/S)Nc3ccc(C(=O)OC(C)C)c(O)c3)cc2)cc1O | > 512 | 128 (≈ 220 µM) | 128 (≈ 220 µM) | > 512 | 512 (≈ 879 µM) | 256 (≈ 439 µM) | ≥ 512 | > 512 | 512 (≈ 879 µM) | 128 (≈ 220 µM) | > 512 | ≥ 512
5 | COC(=O)c1ccc(/N=C(\S)Nc2cccc(/N=C(/S)Nc3ccc(C(=O)OC)cc3)c2)cc1 | > 512 | 64 (≈ 129 µM) | 128 (≈ 259 µM) | 512 (≈ 1040 µM) | > 512 | 128 (≈ 259 µM) | ≥ 512 | 512 (≈ 1040 µM) | > 512 | 64 (≈ 129 µM) | 64 (≈ 129 µM) | ≥ 512
6 | CCOC(=O)c1ccc(/N=C(\S)Nc2cccc(/N=C(/S)Nc3ccc(C(=O)OCC)cc3)c2)cc1 | > 512 | 256 (≈ 490 µM) | 256 (≈ 490 µM) | 512 (≈ 980 µM) | > 512 | 64 (≈ 122 µM) | ≥ 512 | 512 (≈ 980 µM) | > 512 | 256 (≈ 490 µM) | 64 (≈ 122 µM) | ≥ 512

More lines, now with the values ahead:

Row | MIC [1] [µg/mL] | MIC [2] [µg/mL] | MIC [3] [µg/mL] | MIC [4] [µg/mL] | MIC [5] [µg/mL] | MIC [6] [µg/mL] | MIC [7] [µg/mL] | MIC [8] [µg/mL] | MIC [9] [µg/mL] | MIC [10] [µg/mL] | MIC [11] [µg/mL] | MIC [12] [µg/mL] | SMILES
7 | 512 (≈ 972 µM) | 32 (≈ 60.8 µM) | 32 (≈ 60.8 µM) | 512 (≈ 972 µM) | > 512 | 64 (≈ 122 µM) | ≥ 512 | 256 (≈ 486 µM) | > 512 | 128 (≈ 243 µM) | 64 (≈ 122 µM) | ≥ 512 | COC(=O)c1ccc(/N=C(\S)Nc2cccc(/N=C(/S)Nc3ccc(C(=O)OC)c(O)c3)c2)cc1O
8 | > 512 | 16 (≈ 29.1 µM) | 8 (≈ 14.5 µM) | 512 (≈ 930 µM) | > 512 | 64 (≈ 116 µM) | ≥ 512 | 512 (≈ 930 µM) | > 512 | 64 (≈ 116 µM) | 32 (≈ 58.1 µM) | ≥ 512 | CC(C)OC(=O)c1ccc(/N=C(\S)Nc2cccc(/N=C(/S)Nc3ccc(C(=O)OC(C)C)cc3)c2)cc1
9 | 512 (≈ 1100 µM) | 128 (≈ 274 µM) | 128 (≈ 274 µM) | > 512 | 512 (≈ 1100 µM) | 32 (≈ 68.6 µM) | ≥ 512 | > 512 | 512 (≈ 1100 µM) | 128 (≈ 274 µM) | 32 (≈ 68.6 µM) | ≥ 512 | O=C(O)c1ccc(/N=C(\S)Nc2ccc(/N=C(\S)Nc3ccc(C(=O)O)cc3)cc2)cc1
10 | > 512 | 32 (≈ 68.6 µM) | 64 (≈ 137 µM) | > 512 | 512 (≈ 1100 µM) | 64 (≈ 137 µM) | ≥ 512 | 256 (≈ 549 µM) | 512 (≈ 1100 µM) | 64 (≈ 137 µM) | 64 (≈ 137 µM) | ≥ 512 | O=C(O)c1ccc(/N=C(\S)Nc2cccc(/N=C(/S)Nc3ccc(C(=O)O)cc3)c2)cc1
11 | 256 (≈ 513 µM) | 128 (≈ 257 µM) | 64 (≈ 128 µM) | > 512 | 512 (≈ 1030 µM) | 128 (≈ 257 µM) | ≥ 512 | > 512 | 512 (≈ 1030 µM) | 128 (≈ 257 µM) | 128 (≈ 257 µM) | ≥ 512 | O=C(O)c1ccc(/N=C(\S)Nc2ccc(/N=C(/S)Nc3ccc(C(=O)O)c(O)c3)cc2)cc1O
